Consider 23 compounds from patent publication US9493448B2, “Cycloalkane derivatives” (Daiichi Sankyo Company, Limited, priority 2012, dated 2016).

Experiment [1] relates to mice and rats affected by thermal hyperalgesia. The experiment can be described thus: Thermal hyperalgesia assay.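 Also: measurement times set by the study director and not disclosed.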 The class given is in vivo. Conditions: oral administration, constant dose, against the vehicle treatment group; latency to escape behaviors after thermal stimulation of hind paw.
The target of another experiment is hNav 1.7 (Homo sapiens (Human), UniProt Q15858). The experiment can be described thus: Electrophysiological evaluation, automated patch clamp IonWorks Quattro (Population Patch Clamp mode). The class given is cell-based. As to conditions: HEK293A cells stably expressing hNav 1.7/β1/β2; response to second depolarization pulse, pre-pulse potential set to V1/2; read-out: hNav1.7 IC50. In general terms: The patch-clamp technique gives a direct electrical read-out from membranes.
Sequence of hNav 1.7 (Q15858 whole entry): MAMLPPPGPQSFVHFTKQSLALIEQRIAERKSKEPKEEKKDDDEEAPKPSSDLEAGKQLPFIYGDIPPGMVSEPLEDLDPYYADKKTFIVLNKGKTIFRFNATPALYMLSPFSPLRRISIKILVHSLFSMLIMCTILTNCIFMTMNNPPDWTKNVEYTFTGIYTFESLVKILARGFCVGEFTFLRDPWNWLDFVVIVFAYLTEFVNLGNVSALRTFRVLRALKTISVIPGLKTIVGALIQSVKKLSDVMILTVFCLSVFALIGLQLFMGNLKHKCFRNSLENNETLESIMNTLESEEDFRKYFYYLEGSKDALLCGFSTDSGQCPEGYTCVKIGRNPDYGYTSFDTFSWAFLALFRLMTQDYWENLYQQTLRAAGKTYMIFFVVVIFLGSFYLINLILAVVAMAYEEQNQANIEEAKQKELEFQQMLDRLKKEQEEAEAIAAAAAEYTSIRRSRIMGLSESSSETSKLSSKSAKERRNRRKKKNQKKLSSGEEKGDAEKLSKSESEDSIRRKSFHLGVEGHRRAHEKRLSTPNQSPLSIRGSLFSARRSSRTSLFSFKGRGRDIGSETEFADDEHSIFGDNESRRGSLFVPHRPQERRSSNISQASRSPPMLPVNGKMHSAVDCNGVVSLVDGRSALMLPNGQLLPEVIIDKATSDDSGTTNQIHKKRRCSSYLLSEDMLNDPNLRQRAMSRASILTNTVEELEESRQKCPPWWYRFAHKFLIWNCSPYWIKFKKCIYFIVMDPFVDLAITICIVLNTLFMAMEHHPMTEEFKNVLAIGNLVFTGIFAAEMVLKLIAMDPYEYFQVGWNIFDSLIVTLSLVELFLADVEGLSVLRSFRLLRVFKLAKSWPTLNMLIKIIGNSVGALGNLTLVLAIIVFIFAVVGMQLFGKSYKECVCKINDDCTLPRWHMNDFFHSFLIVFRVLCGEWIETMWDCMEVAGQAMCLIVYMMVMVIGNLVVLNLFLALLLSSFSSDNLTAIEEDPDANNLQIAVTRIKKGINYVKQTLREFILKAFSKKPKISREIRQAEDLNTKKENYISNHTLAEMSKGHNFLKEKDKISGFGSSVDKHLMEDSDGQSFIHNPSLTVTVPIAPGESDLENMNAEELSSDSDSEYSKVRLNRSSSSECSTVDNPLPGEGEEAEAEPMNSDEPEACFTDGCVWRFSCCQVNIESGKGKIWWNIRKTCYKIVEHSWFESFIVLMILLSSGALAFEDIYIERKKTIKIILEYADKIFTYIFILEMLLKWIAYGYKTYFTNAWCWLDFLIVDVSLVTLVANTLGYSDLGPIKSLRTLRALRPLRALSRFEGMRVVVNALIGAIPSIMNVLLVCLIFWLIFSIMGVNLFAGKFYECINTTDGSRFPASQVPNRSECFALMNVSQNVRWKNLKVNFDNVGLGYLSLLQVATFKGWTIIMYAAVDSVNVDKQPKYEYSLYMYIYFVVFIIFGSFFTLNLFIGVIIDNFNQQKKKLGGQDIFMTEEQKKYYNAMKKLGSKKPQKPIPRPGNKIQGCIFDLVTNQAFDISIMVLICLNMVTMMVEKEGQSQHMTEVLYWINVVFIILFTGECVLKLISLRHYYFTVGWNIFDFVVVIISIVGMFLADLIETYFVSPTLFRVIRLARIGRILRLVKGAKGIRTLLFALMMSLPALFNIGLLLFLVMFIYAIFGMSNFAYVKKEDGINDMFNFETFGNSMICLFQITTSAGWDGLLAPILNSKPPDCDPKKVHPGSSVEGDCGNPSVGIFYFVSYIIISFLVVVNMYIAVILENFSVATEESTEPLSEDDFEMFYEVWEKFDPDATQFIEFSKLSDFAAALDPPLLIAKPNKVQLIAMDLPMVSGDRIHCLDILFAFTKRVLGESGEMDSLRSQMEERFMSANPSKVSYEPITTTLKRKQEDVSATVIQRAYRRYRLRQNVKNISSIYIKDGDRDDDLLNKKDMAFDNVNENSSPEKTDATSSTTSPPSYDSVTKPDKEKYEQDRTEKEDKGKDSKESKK
Sequence of hNav 1.7 (Q07699 19-218 partner): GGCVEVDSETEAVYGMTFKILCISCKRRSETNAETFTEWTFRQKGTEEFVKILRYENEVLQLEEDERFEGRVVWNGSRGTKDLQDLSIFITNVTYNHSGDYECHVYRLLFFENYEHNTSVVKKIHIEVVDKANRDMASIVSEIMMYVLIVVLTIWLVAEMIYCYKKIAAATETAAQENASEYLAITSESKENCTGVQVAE
Sequence of hNav 1.7 (O60939 30-215 partner): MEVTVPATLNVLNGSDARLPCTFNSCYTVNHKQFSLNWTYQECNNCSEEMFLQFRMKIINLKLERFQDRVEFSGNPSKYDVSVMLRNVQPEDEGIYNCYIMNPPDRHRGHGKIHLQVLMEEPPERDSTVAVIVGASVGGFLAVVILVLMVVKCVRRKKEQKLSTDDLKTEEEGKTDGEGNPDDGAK

`CCn1nccc1[C@@H]1CCC[C@H]1Oc1ccc(S(=O)(=O)Nc2ccncn2)c(F)c1F` [Example 118, 4-{[(1R,2S)-2-(1-Ethyl-1H-pyrazol-5-yl)cyclopentyl]oxy}-2,3-difluoro-N-(pyrimidin-4-yl)benzenesulfonamide]: the “Ratio of improving pain score (%)” value in experiment [1] is listed as “A (“A” when the rate was 61 to 100%)”. Further, the IC50 – broadly, the midpoint of a concentration-inhibition curve – at hNav 1.7 turned out to be 21000 nM.

Turning to `Cc1cc(S(=O)(=O)Nc2ccncn2)c(F)cc1O[C@H]1CC(F)(F)CC[C@@H]1c1cn[nH]c1` [Example 143, 4-{[(1S,2R)-5,5-Difluoro-2-(1H-pyrazol-4-yl)cyclohexyl]oxy}-2-fluoro-5-methyl-N-(pyrimidin-4-yl)benzenesulfonamide], the “Ratio of improving pain score (%)” value in experiment [1] is “B (“B” when the rate was 31 to 60%)”. For the same compound, the IC50 at hNav 1.7 amounted to 21 nM.

As to `Cn1nccc1[C@H]1CC(F)(F)C[C@@H]1Oc1cc(F)c(S(=O)(=O)Nc2ccncn2)cc1Cl` (relative stereo) [Example 146, 5-Chloro-4-{[(1S*,2R*)-4,4-difluoro-2-(1-methyl-1H-pyrazol-5-yl)cyclopentyl]oxy}-2-fluoro-N-(pyrimidin-4-yl)benzenesulfonamide], in experiment [1], the “Ratio of improving pain score (%)” value is on record as “C (“C” when the rate was 0 to 30%)”. In addition, at hNav 1.7, the IC50 stood at 24 nM.

Take `O=S(=O)(Nc1ccncn1)c1cc(F)c(O[C@H]2CC(F)(F)CC[C@@H]2c2cn[nH]c2)cc1F` (relative stereo) [Example 103, 4-{[(1S*,2R*)-5,5-Difluoro-2-(1H-pyrazol-4-yl)cyclohexyl]oxy}-2,5-difluoro-N-(pyrimidin-4-yl)benzenesulfonamide]: the “Ratio of improving pain score (%)” value in experiment [1] is “B (“B” when the rate was 31 to 60%)”. Moreover, on hNav 1.7, the IC50 was determined as 320 nM.

With `CCn1nccc1[C@H]1CCCC[C@@H]1Oc1cc(F)c(S(=O)(=O)Nc2ccncn2)cc1F` (relative stereo) [Example 28, 4-{[(1S*,2R*)-2-(1-Ethyl-1H-pyrazol-5-yl)cyclohexyl]oxy}-2,5-difluoro-N-(pyrimidin-4-yl)benzenesulfonamide], the “Ratio of improving pain score (%)” value in experiment [1] is “C (“C” when the rate was 0 to 30%)”. Moreover, the IC50 at hNav 1.7 stood at 46 nM.

For `Cc1cc(S(=O)(=O)Nc2ccncn2)c(F)cc1O[C@H]1CCC[C@@H]1c1cn[nH]c1` (relative stereo) [Example 101, 2-Fluoro-5-methyl-4-{[(1S*,2R*)-2-(1H-pyrazol-4-yl)cyclopentyl]oxy}-N-(pyrimidin-4-yl)benzenesulfonamide], the “Ratio of improving pain score (%)” value in experiment [1] is on record as “B (“B” when the rate was 31 to 60%)”. Also, the half-maximal inhibitory concentration (IC50) on hNav 1.7 came out at 180 nM.

Turning to `Cn1nccc1[C@H]1CC(F)(F)CC[C@@H]1Oc1cc(F)c(S(=O)(=O)Nc2ccncn2)cc1F` (relative stereo) [Example 88, 4-{[(1S*,2R*)-4,4-Difluoro-2-(1-methyl-1H-pyrazol-5-yl)cyclohexyl]oxy}-2,5-difluoro-N-(pyrimidin-4-yl)benzenesulfonamide], in experiment [1], the “Ratio of improving pain score (%)” value is reported as “C (“C” when the rate was 0 to 30%)”. Further, the IC50 on hNav 1.7 came out at 320 nM.

Take `Cc1cc(S(=O)(=O)Nc2ccncn2)c(F)cc1O[C@H]1CC(F)(F)CC[C@@H]1c1ccnn1C` (relative stereo) [Example 90, 4-{[(1S*,2R*)-5,5-Difluoro-2-(1-methyl-1H-pyrazol-5-yl)cyclohexyl]oxy}-2-fluoro-5-methyl-N-(pyrimidin-4-yl)benzenesulfonamide]: the “Ratio of improving pain score (%)” value in experiment [1] is “B (“B” when the rate was 31 to 60%)”. Moreover, the IC50 on hNav 1.7 turned out to be 89 nM.

Take `Nc1ncccc1[C@H]1CCCC[C@@H]1Oc1cc(F)c(S(=O)(=O)Nc2ccncn2)cc1F` (relative stereo) [Example 69, 4-{[(1S*,2R*)-2-(2-Aminopyridin-3-yl)cyclohexyl]oxy}-2,5-difluoro-N-(pyrimidin-4-yl)benzenesulfonamide]: in experiment [1], the “Ratio of improving pain score (%)” value is “B (“B” when the rate was 31 to 60%)”. Also, the IC50 on hNav 1.7 amounted to 87 nM.

As to `Cc1c(O[C@H]2CCC[C@@H]2c2ccnn2C)ccc(S(=O)(=O)Nc2ccncn2)c1F` (relative stereo) [Example 65, 2-Fluoro-3-methyl-4-{[(1S*,2R*)-2-(1-methyl-1H-pyrazol-5-yl)cyclopentyl]oxy}-N-(pyrimidin-4-yl)benzenesulfonamide], the “Ratio of improving pain score (%)” value in experiment [1] is “B (“B” when the rate was 31 to 60%)”. Moreover, at hNav 1.7, the IC50 turned out to be 130 nM.

Consider `Cn1nccc1[C@H]1CC(F)(F)C[C@@H]1Oc1cc(F)c(S(=O)(=O)Nc2ccncn2)cc1F` (relative stereo) [Example 107, 4-{[(1S*,2R*)-4,4-Difluoro-2-(1-methyl-1H-pyrazol-5-yl)cyclopentyl]oxy}-2,5-difluoro-N-(pyrimidin-4-yl)benzenesulfonamide], for which the “Ratio of improving pain score (%)” value in experiment [1] is reported as “B (“B” when the rate was 31 to 60%)”. Also, the IC50 on hNav 1.7 stood at 42 nM.

For the compound `Cn1nccc1[C@H]1CC(C)(C)CC[C@@H]1Oc1cc(F)c(S(=O)(=O)Nc2ccncn2)cc1F` (relative stereo) [Example 67, 4-{[(1S*,2R*)-4,4-Dimethyl-2-(1-methyl-1H-pyrazol-5-yl)cyclohexyl]oxy}-2,5-difluoro-N-(pyrimidin-4-yl)benzenesulfonamide], the “Ratio of improving pain score (%)” value in experiment [1] is “C (“C” when the rate was 0 to 30%)”. The IC50 on hNav 1.7 was found to be 43 nM.

As for `Cn1nccc1[C@H]1CCC[C@@H]1Oc1ccc(S(=O)(=O)Nc2ccncn2)cc1Cl` (relative stereo) [Example 23, 3-Chloro-4-({[(1S*,2R*)-2-(1-methyl-1H-pyrazol-5-yl)cyclopentyl]oxy}-N-(pyrimidin-4-yl)benzenesulfonamide], the “Ratio of improving pain score (%)” value in experiment [1] is recorded as “A (“A” when the rate was 61 to 100%)”. In addition, the IC50 on hNav 1.7 was determined as 130 nM.

For the compound `CCn1nccc1[C@H]1CCCC[C@@H]1Oc1ccc(S(=O)(=O)Nc2ccncn2)c(F)c1` (relative stereo) [Example 45, 4-{[(1S*,2R*)-2-(1-Ethyl-1H-pyrazol-5-yl)cyclohexyl]oxy}-2-fluoro-N-(pyrimidin-4-yl)benzenesulfonamide], the “Ratio of improving pain score (%)” value in experiment [1] is “C (“C” when the rate was 0 to 30%)”. For the same compound, the IC50 at hNav 1.7 stood at 190 nM.

`CCn1nccc1[C@H]1CCC[C@@H]1Oc1ccc(S(=O)(=O)Nc2ccncn2)c(F)c1F` [Example 119, 4-{[(1S,2R)-2-(1-Ethyl-1H-pyrazol-5-yl)cyclopentyl]oxy}-2,3-difluoro-N-(pyrimidin-4-yl)benzenesulfonamide]: the “Ratio of improving pain score (%)” value in experiment [1] was “A (“A” when the rate was 61 to 100%)”. For the same compound, the IC50 on hNav 1.7 was 100 nM.

As for `CCn1nccc1[C@H]1CCC[C@@H]1Oc1ccc(S(=O)(=O)Nc2ccncn2)c(F)c1F` (relative stereo) [Example 38, 4-{[(1S*,2R*)-2-(1-Ethyl-1H-pyrazol-5-yl)cyclopentyl]oxy}-2,3-difluoro-N-(pyrimidin-4-yl)benzenesulfonamide], in experiment [1], the “Ratio of improving pain score (%)” value was “A (“A” when the rate was 61 to 100%)”. On hNav 1.7, the IC50 is 240 nM.

Regarding `O=S(=O)(Nc1ccncn1)c1cc(Cl)c(O[C@H]2CCC[C@@H]2c2ccn[nH]2)cc1F` (relative stereo) [Example 140, 5-Chloro-2-fluoro-4-{[(1S*,2R*)-2-(1H-pyrazol-5-yl)cyclopentyl]oxy}-N-(pyrimidin-4-yl)benzenesulfonamide], the “Ratio of improving pain score (%)” value in experiment [1] is recorded as “B (“B” when the rate was 31 to 60%)”. At hNav 1.7, the IC50 worked out at 34 nM.

In the case of `Nc1n[nH]cc1[C@H]1CCCC[C@@H]1Oc1cc(F)c(S(=O)(=O)Nc2ccncn2)cc1Cl` (relative stereo) [Example 71, 4-{[(1S*,2R*)-2-(3-Amino-1H-pyrazol-4-yl)cyclohexyl]oxy}-5-chloro-2-fluoro-N-(pyrimidin-4-yl)benzenesulfonamide], the “Ratio of improving pain score (%)” value in experiment [1] is recorded as “A (“A” when the rate was 61 to 100%)”. Further, on hNav 1.7, the IC50 amounted to 150 nM.

`Cn1nccc1[C@H]1CCCCC[C@@H]1Oc1cc(F)c(S(=O)(=O)Nc2ccncn2)cc1Cl` (relative stereo) [Example 60, 5-Chloro-2-fluoro-4-{[(1S*,2R*)-2-(1-methyl-1H-pyrazol-5-yl)cycloheptyl]oxy}-N-(pyrimidin-4-yl)benzenesulfonamide]: the “Ratio of improving pain score (%)” value in experiment [1] is recorded as “C (“C” when the rate was 0 to 30%)”. Besides, the IC50 on hNav 1.7 amounted to 37 nM.

For the compound `Cn1nccc1[C@H]1CCC(F)(F)C[C@@H]1Oc1cc(F)c(S(=O)(=O)Nc2ccncn2)cc1Cl` (relative stereo) [Example 141, 5-Chloro-4-{[(1S*,2R*)-5,5-difluoro-2-(1-methyl-1H-pyrazol-5-yl)cyclohexyl]oxy}-2-fluoro-N-(pyrimidin-4-yl)benzenesulfonamide], the “Ratio of improving pain score (%)” value in experiment [1] is given as “A (“A” when the rate was 61 to 100%)”. In addition, the IC50 on hNav 1.7 is 58 nM.

`Cn1nccc1[C@H]1C[C@H](O)CC[C@@H]1Oc1cc(F)c(S(=O)(=O)Nc2ccncn2)cc1Cl` [Example 165, 5-Chloro-2-fluoro-4-{[(1S,2R,4R)-4-hydroxy-2-(1-methyl-1H-pyrazol-5-yl)cyclohexyl]oxy}-N-(pyrimidin-4-yl)benzenesulfonamide]: in experiment [1], the “Ratio of improving pain score (%)” value was “B (“B” when the rate was 31 to 60%)”. For the same compound, at hNav 1.7, the IC50 amounted to 40 nM.

`Cn1nccc1[C@H]1CCC[C@@H]1Oc1cc(F)c(S(=O)(=O)Nc2ccncn2)cc1C#N` (relative stereo) [Example 62, 5-Cyano-2-fluoro-4-{[(1S*,2R*)-2-(1-methyl-1H-pyrazol-5-yl)cyclopentyl]oxy}-N-(pyrimidin-4-yl)benzenesulfonamide]: in experiment [1], the “Ratio of improving pain score (%)” value is reported as “B (“B” when the rate was 31 to 60%)”. For the same compound, at hNav 1.7, the IC50 turned out to be 120 nM.

Turning to `Cn1nccc1[C@H]1CCCC[C@@H]1Oc1ccc(S(=O)(=O)Nc2ccncn2)c(F)c1F` (relative stereo) [Example 40, 2,3-Difluoro-4-{[(1S*,2R*)-2-(1-methyl-1H-pyrazol-5-yl)cyclohexyl]oxy}-N-(pyrimidin-4-yl)benzenesulfonamide], the “Ratio of improving pain score (%)” value in experiment [1] is reported as “A (“A” when the rate was 61 to 100%)”. The IC50 at hNav 1.7 amounted to 330 nM.
